Like-named read-outs stand apart in the source and are kept apart here.
Tests used:
[1] = MR relaxivity, phantom at 3 T; conditions: 3 T MRI
Text: The r2/r1 ratio serves as a metric for determining whether the nanoparticles are more appropriate for use as T1 MRI contrast agents or T2 MRI contrast agents.
The hydrodynamic diameter of the synthesized INV-001 was 3.9 nm with a surface charge of -3.3 mV. […] The particle size of this contrast agent exceeds the maximum size (2 nm) permissible for intravasation, thereby preventing its entry into blood vessels. Thus, it is theoretically suitable for use as a lymphatic-specific contrast agent that infiltrates the lymphatic vessels without venous contamination when administered intradermally or subcutaneously.
The measured r1 and r2 relaxivity values of NEMO-103 were 2.0 mM^-1s^-1 and 2.3 mM^-1s^-1, respectively (FIGS. 29d and 29e). The r2/r1 ratio, which is an important parameter for T1 MRI contrast agents, was calculated to be 1.15. […] For comparison, the measured r1 and r2 values of Dotarem® were 4.7 mM^-1s^-1 and 5.2 mM^-1s^-1, respectively, resulting in an r2/r1 ratio of 1.11.
To evaluate the T1 MRI performance of the materials from Example 7-7, both the spin-spin relaxivity coefficient (r2) and spin-lattice relaxivity coefficient (r1) were measured, and the r2/r1 ratio was calculated. The r2/r1 ratio is a critical indicator in determining whether a contrast agent is suitable for T1 or T2 MRI.

[2] = tested on: popliteal lymph node and surrounding lymphatic vessels; assay: Magnetic resonance lymphangiography (MRL) in rats, Example 1; format: in vivo, male Sprague-Dawley (SD) rats
Description: Specifically, all animals used in Example 1 were male Sprague-Dawley (SD) rats weighing 250-300 g. The prepared contrast agent was administered intradermally/subcutaneously into the fourth digits of both hind limbs using a 30-gauge needle. MRL was performed every 16 minutes using a 3D time-of-flight (TOF) sequence with a saturation band on a 9.4-T preclinical MRI scanner.
Gd-DOTA (Gd-DOTA, DOTAREM, Guerbet, Roissy CdG Cedex, France) was used as a Gd-based contrast agent. The Gd-DOTA stock solution, provided at a concentration of 500 mM, was diluted with normal saline before its administration.
The signal-to-noise ratio (SNR) and contrast-to-noise ratio (CNR) of the popliteal lymph node and surrounding lymphatic vessels were analyzed at a dose of 1.125 µmol (75 µL, 15 mM) of INV-001 and Gd-DOTA. Through sequential MRI imaging, dynamic patterns of SNR and CNR and peak time points in the popliteal lymph node and lymphatic vessels were obtained (FIG. 4a). […] In the 1.125 µmol INV-001 group, peak enhancement appeared between 16 and 32 minutes during extended visualization (SNRLN: 23.49 ± 8.64; SNRLV: 16.05 ± 3.52; CNRLN: 15.87 ± 11.05; CNRLV: 12.58 ± 3.37) (FIG. 4b).
Following injection of the contrast agents into the hind limb, magnetic resonance lymphangiography (MRL) was performed using 3D TOF under saturation band conditions to distinguish lymphatic vessels. […] In contrast, in all INV-001 groups, the popliteal lymph node and lymphatic vessels were clearly visualized without venous contamination (FIGs. 5e, 5f, and 5g, yellow arrows). Methylene blue was injected two days after MRL to verify the anatomical structures (FIGs. 5d and 5h).
Qualitative image analyses under various injection conditions were performed using Gd-DOTA and INV-001. In all groups, MRL provided good visualization of the popliteal lymph node and lymphatic vessels (FIG. 6). The qualitative image analysis was conducted according to the criteria shown in Table 1 (Criteria for qualitative score).

knee joint cavity = assay: Magnetic resonance arthrography after intra-articular injection in rats; format: in vivo, Male Sprague-Dawley rats
Description: Male Sprague-Dawley rats aged 7 weeks or older were anesthetized using a mixture of oxygen and isoflurane gas. INV-002 synthesized in Example 4-1 was then administered into the knee joint, and T1-weighted MRI images were acquired using a fast spin echo sequence.
For example, the T1 signal intensity of the synovial fluid increased from 4,900 (before injection) to 21,000 (after injection). Subsequently, the contrast-to-noise ratios (CNRs) of various anatomical regions within the joint cavity- including the meniscus, joint capsule, cruciate ligament, bone, and fat - were analyzed (FIG. 22F). The CNR was calculated as the difference in average signal intensity between the synovial fluid and each anatomical structure, divided by the standard deviation of the background signal. After INV-002 injection, the CNRs for the meniscus, capsule, cruciate ligament, bone, and fat regions increased by 10-fold, 8.5-fold, 18-fold, 14-fold, 12-fold, […], respectively, compared to pre-injection levels.
The contrast effect of INV-002 was not only stronger than that of the gadolinium-based contrast agent (e.g., Dotarem) but also lasted longer. For quantitative analysis of contrast enhancement, the signal-to-noise ratio (SNR) was measured at two intra-articular locations (indicated by orange arrows), and the average SNR was plotted over time. […]

lymphatic vessels = assay: MRL after intradermal injection, Example 2; format: in vivo, rats; conditions: lower limb, checked with methylene blue
Description: INV-001 was administered intradermally into the interdigital space of the lower limb of animals using a 31-gauge syringe. The injection volume was set at 10, 20, 30, 40, 50, or 75 microliters per animal, corresponding to a human equivalent dose of 2, 4, 6, 8, 10, or 15 mL, respectively.
Prior to MRI acquisition, the animals were anesthetized by inhalation of isoflurane delivered in oxygen at a concentration of 0.5-2%. If necessary, local anesthesia with lidocaine was applied to relieve procedural discomfort.
Baseline MRI images were acquired prior to the administration of the contrast agent. Following the injection of INV-001 prepared in Example 2-1, MRI scans were conducted every 16 minutes for a total of 96 minutes. The imaging sequence used was 3D Time-of-Flight Gradient Echo (3D TOF GRE), with images obtained in axial, sagittal, and coronal planes. […]
Maximum intensity projection (MIP) images were generated from the baseline and post-injection MRI data acquired at 16-minute intervals for 96 minutes. […] The overall image quality, including vessel discontinuity, was assessed using a four-point scale (-, +, ++, +++). Additionally, the presence of dermal backflow and lymph node congestion was evaluated. […]
To confirm the clearance of the injected contrast agent, the administration site was evaluated 24 hours after intradermal injection.

[3] = MR relaxivity, phantom at 9.4 T
Description: The hydrodynamic size of INV-001 was measured to be 3.6 nm (FIG. 3b). Subsequently, the T1 and T2 relaxation rates (1/T1 and 1/T2) of INV-001 were measured at 9.4 T (FIG. 3c). The longitudinal and transverse relaxivities (r1 and r2) were calculated at various INV-001 concentrations (0.125, 0.25, 0.5, and 1.0 mM). The r1 was determined to be 2.61 mM^-1·s^-1 and the r2 was 4.33 mM^-1·s^-1 (FIGS. 3d and 3e).

[4] = 1.125 µmol (75 µL, 15 mM), at peak enhancement

time of peak enhancement post-injection ([2]; popliteal lymph node and lymphatic vessels, scans every 16 min): 16 min | time of peak SNR post-injection (knee joint cavity; average of two intra-articular locations): 0.25 h | SNR dropped to baseline within (knee joint cavity; post-injection): ≤ 0.5 h
SMILES: CNC[C@H](O)[C@@H](O)[C@H](O)[C@H](O)CO.O=C([O-])CN1CCN(CC(=O)[O-])CCN(CC(=O)O)CCN(CC(=O)[O-])CC1.[Gd+3] [Gd-DOTA]
r1 [1]: 4.7 mM⁻¹ s⁻¹ | qualitative score [2]: 3.2 | venous contamination ([2]; 1.125 µmol (75 µL, 15 mM), hind limb): venous contamination was observed | CNRLN [2, 4]: 21.61 ± 10.04 | CNRLV [2, 4]: 7.89 ± 5.15 | SNRLV [2, 4]: 11.15 ± 5.83 | SNRLN ([2]; 1.125 µmol (75 µL, 15 mM), at peak enhancement (Gd-DOTA 16 min, INV-001 16-32 min)): 26.96 ± 10.78 | qualitative score ([2]; 2.25 µmol (75 µL, 30 mM)): 3.8 | venous contamination ([2]; 2.25 µmol (75 µL, 30 mM), hind limb): venous contamination was observed | venous contamination ([2]; doses of 0.45 µmol or higher (discussion)): venous contamination in most animals | enhancement of lymphatic vessels versus veins (venous contamination) (lymphatic vessels): preferentially enhanced veins more than lymphatic vessels | T1 contrast enhancement in phantom studies [3]: ~3.7 mM⁻¹ s⁻¹
